Data published in PubChem BioAssay AID248 (DTP/NCI, 2004).
Inconclusive results and toxic doses are left out. No stated cut-off is given here; in the data, active means T/C of 150% or more; inactive means T/C below 125%.

Test system: L1210 leukemia ip in BDF1 mice, survival T/C
Assay: NCI In Vivo Anticancer Drug Screen. Data for tumor model L1210 Leukemia (intraperitoneal) in B6D2F1 (BDF1) mice
Conditions: endpoint: mean survival time, higher = longer survival
In short: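 Ratio derived from survival: compound-dosed mice over vehicle-dosed mice, all bearing a transplantable tumor.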

[1] = dose: 100.0 mg/kg/injection, schedule: Q01DX001 (ip), vehicle: saline
[2] = dose: 200.0 mg/kg/injection, schedule: Q01DX001 (ip), vehicle: saline
[3] = dose: 100.0 mg/kg/injection, schedule: Q01DX009 (ip), vehicle: saline with Tween-80
[4] = dose: 200.0 mg/kg/injection, schedule: Q01DX009 (ip), vehicle: saline with Tween-80
[5] = dose: 25.0 mg/kg/injection, schedule: Q01DX009 (ip), vehicle: saline
[6] = dose: 50.0 mg/kg/injection, schedule: Q01DX009 (ip), vehicle: saline
[7] = dose: 100.0 mg/kg/injection, schedule: Q01DX009 (ip), vehicle: saline

Measured: T/C

NC(CCl)C(=O)O (configuration not stated)
inactive: dose: 6.25 mg/kg/injection, schedule: Q01DX001 (ip), vehicle: saline 103 % of control | dose: 12.5 mg/kg/injection, schedule: Q01DX001 (ip), vehicle: saline 101 % of control | dose: 25.0 mg/kg/injection, schedule: Q01DX001 (ip), vehicle: saline 103 % of control | dose: 50.0 mg/kg/injection, schedule: Q01DX001 (ip), vehicle: saline 97 % of control | [1] 92 % of control | [2] 90 % of control

N#CCCC(=O)c1cccnc1
inactive: dose: 100.0 mg/kg/injection, schedule: Q04DX002 (ip), vehicle: saline 108 % of control | dose: 200.0 mg/kg/injection, schedule: Q04DX002 (ip), vehicle: saline 90 % of control | dose: 400.0 mg/kg/injection, schedule: Q04DX002 (ip), vehicle: saline 93 % of control

O=C(OC1CCCCCCC1OC(=O)c1ccc([N+](=O)[O-])cc1)c1ccc([N+](=O)[O-])cc1 (configuration not stated)
inactive: dose: 75.0 mg/kg/injection, schedule: Q01DX001 (ip), vehicle: carboxymethylcellulose (CMC) 93 % of control | dose: 150.0 mg/kg/injection, schedule: Q01DX001 (ip), vehicle: carboxymethylcellulose (CMC) 91 % of control | dose: 300.0 mg/kg/injection, schedule: Q01DX001 (ip), vehicle: carboxymethylcellulose (CMC) 91 % of control

Cc1ccc(C)c(N=Nc2ccc(O)cc2)c1
inactive: [3] 94 % of control | [4] 93 % of control

CC(=O)Nc1ccc(C(=O)C(O)c2ccc(NC(C)=O)cc2)cc1 (configuration not stated)
inactive: dose: 50.0 mg/kg/injection, schedule: Q01DX001 (ip), vehicle: other 100 % of control | dose: 100.0 mg/kg/injection, schedule: Q01DX001 (ip), vehicle: other 92 % of control | dose: 200.0 mg/kg/injection, schedule: Q01DX001 (ip), vehicle: other 105 % of control | dose: 400.0 mg/kg/injection, schedule: Q01DX001 (ip), vehicle: other 88 % of control

O=C(Nc1ccc(Cl)cc1)Oc1ccc(Cl)cc1Cl
inactive: dose: 25.0 mg/kg/injection, schedule: Q01DX009 (ip), vehicle: DMSO 92 % of control | dose: 25.0 mg/kg/injection, schedule: Q04DX002 (ip), vehicle: DMSO 94 % of control | dose: 50.0 mg/kg/injection, schedule: Q01DX009 (ip), vehicle: DMSO 86 % of control | dose: 50.0 mg/kg/injection, schedule: Q04DX002 (ip), vehicle: DMSO 87 % of control | dose: 200.0 mg/kg/injection, schedule: Q04DX002 (ip), vehicle: DMSO 96 % of control

COc1ccc(S(=O)(=O)F)cc1NC(=O)CCc1ccc(N2C(N)=NC(N)=NC2(C)C)cc1
inactive: dose: 100.0 mg/kg/injection, schedule: Q01DX001 (ip), vehicle: gum acacia 115 % of control | dose: 200.0 mg/kg/injection, schedule: Q01DX001 (ip), vehicle: gum acacia 101 % of control

C/C=C1/CN(C)C2Cc3c([nH]c4ccccc34)C(c3cc4[nH]c5c(c4cc3OC)CCN3CC4CC(C(C)O)C3C5(C(=O)OC)C4)CC1C2C(=O)OC (configuration not stated)
inactive: dose: 10.0 mg/kg/injection, schedule: Q01DX Z (ip), vehicle: other 97 % of control | dose: 20.0 mg/kg/injection, schedule: Q01DX Z (ip), vehicle: other 93 % of control | dose: 30.0 mg/kg/injection, schedule: Q01DX Z (ip), vehicle: other 90 % of control | dose: 30.0 mg/kg/injection, schedule: Q02DX Z (ip), vehicle: other 104 % of control | dose: 40.0 mg/kg/injection, schedule: Q01DX Z (ip), vehicle: other 95 % of control | dose: 40.0 mg/kg/injection, schedule: Q01DX Z (ip), vehicle: water 90 % of control | dose: 40.0 mg/kg/injection, schedule: Q02DX Z (ip), vehicle: other 103 % of control | dose: 60.0 mg/kg/injection, schedule: Q02DX Z (ip), vehicle: other 102 % of control | dose: 80.0 mg/kg/injection, schedule: Q01DX Z (ip), vehicle: water 94 % of control | dose: 80.0 mg/kg/injection, schedule: Q02DX Z (ip), vehicle: other 95 % of control

c1ccc(-c2cscc2-c2ccccc2)cc1
inactive: [5] 105 % of control | [6] 96 % of control | [7] 100 % of control | dose: 200.0 mg/kg/injection, schedule: Q01DX009 (ip), vehicle: saline 97 % of control | dose: 400.0 mg/kg/injection, schedule: Q01DX009 (ip), vehicle: saline 98 % of control

O=Cc1[nH]c(=S)[nH]c(=O)c1Cc1cccc2ccccc12
inactive: [3] 97 % of control | [4] 101 % of control

O=C1c2ccccc2C(=O)c2c(O)c(N3CCOCC3)cc(O)c21
inactive: dose: 0.25 mg/kg/injection, schedule: Q04DX003 (ip), vehicle: water 90 % of control | dose: 0.5 mg/kg/injection, schedule: Q04DX003 (ip), vehicle: water 102 % of control | dose: 1.0 mg/kg/injection, schedule: Q04DX003 (ip), vehicle: water 110 % of control | dose: 2.0 mg/kg/injection, schedule: Q04DX003 (ip), vehicle: water 100 % of control | dose: 4.0 mg/kg/injection, schedule: Q04DX003 (ip), vehicle: water 102 % of control | dose: 8.0 mg/kg/injection, schedule: Q04DX003 (ip), vehicle: water 100 % of control | dose: 16.0 mg/kg/injection, schedule: Q04DX003 (ip), vehicle: saline 102 % of control | dose: 16.0 mg/kg/injection, schedule: Q04DX003 (ip), vehicle: water 100 % of control | dose: 32.0 mg/kg/injection, schedule: Q04DX003 (ip), vehicle: saline 110 % of control | dose: 64.0 mg/kg/injection, schedule: Q04DX003 (ip), vehicle: saline 102 % of control

BrCOCCCCOCBr
inactive: dose: 44.0 mg/kg/injection, schedule: Q01DX009 (ip), vehicle: saline with Tween-80 109 % of control | dose: 50.0 mg/kg/injection, schedule: Q01DX001 (ip), vehicle: saline with Tween-80 102 % of control | dose: 50.0 mg/kg/injection, schedule: Q01DX009 (ip), vehicle: saline with Tween-80 108 % of control | dose: 50.0 mg/kg/injection, schedule: Q04DX002 (ip), vehicle: saline with Tween-80 105 % of control | dose: 50.0 mg/kg/injection, schedule: Q04DX003 (ip), vehicle: saline with Tween-80 110 % of control | dose: 67.0 mg/kg/injection, schedule: Q01DX009 (ip), vehicle: saline with Tween-80 112 % of control | dose: 100.0 mg/kg/injection, schedule: Q01DX001 (ip), vehicle: saline with Tween-80 102 % of control | [3] 109 % of control | dose: 100.0 mg/kg/injection, schedule: Q04DX002 (ip), vehicle: saline with Tween-80 107 % of control | dose: 100.0 mg/kg/injection, schedule: Q04DX003 (ip), vehicle: saline with Tween-80 107 % of control | dose: 150.0 mg/kg/injection, schedule: Q01DX009 (ip), vehicle: saline with Tween-80 107 % of control | dose: 200.0 mg/kg/injection, schedule: Q01DX001 (ip), vehicle: saline with Tween-80 104 % of control | [4] 104 % of control | dose: 200.0 mg/kg/injection, schedule: Q04DX002 (ip), vehicle: saline with Tween-80 105 % of control | dose: 200.0 mg/kg/injection, schedule: Q04DX003 (ip), vehicle: saline with Tween-80 109 % of control | dose: 400.0 mg/kg/injection, schedule: Q01DX001 (ip), vehicle: saline with Tween-80 107 % of control | dose: 400.0 mg/kg/injection, schedule: Q04DX002 (ip), vehicle: saline with Tween-80 91 % of control | dose: 400.0 mg/kg/injection, schedule: Q04DX003 (ip), vehicle: saline with Tween-80 103 % of control

O=C1C(=O)c2ccccc2C=C1C1CCCCC1
inactive: dose: 50.0 mg/kg/injection, schedule: Q01DX001 (ip), vehicle: carboxymethylcellulose (CMC) 97 % of control | dose: 100.0 mg/kg/injection, schedule: Q01DX001 (ip), vehicle: carboxymethylcellulose (CMC) 114 % of control | dose: 200.0 mg/kg/injection, schedule: Q01DX001 (ip), vehicle: carboxymethylcellulose (CMC) 97 % of control | dose: 400.0 mg/kg/injection, schedule: Q01DX001 (ip), vehicle: carboxymethylcellulose (CMC) 107 % of control

O=C(O)/C=C/C(=O)Nc1ccc2c(c1)Cc1cc(NC(=O)C(F)(F)F)ccc1-2
inactive: [5] 105 % of control | dose: 25.0 mg/kg/injection, schedule: Q04DX003 (ip), vehicle: saline 102 % of control | [6] 101 % of control | dose: 50.0 mg/kg/injection, schedule: Q04DX003 (ip), vehicle: saline 96 % of control | [1] 90 % of control | [7] 100 % of control | dose: 100.0 mg/kg/injection, schedule: Q04DX003 (ip), vehicle: saline 98 % of control | [2] 90 % of control
